The results in this text go back to patent publication US20080090805A1, “CB-1 MODULATING COMPOUNDS AND THEIR USE” (ACADIA PHARMACEUTICALS INC., priority 2005, published 2008).

Molecules are shown by their SMILES.

Data set [1] in a line: Clearance study, liver microsomes (rats). The note with it: rat, pH 7.4. (Liver microsomes are a subcellular fraction often used to study metabolism.)
The nature of data set [2]: Clearance study, liver microsomes (mice). As to conditions: mouse, pH 7.4.
Data set [3] in a line: Clearance study, liver microsomes (human). The note with it: pH 7.4.

Turning to `O=C(NCc1ccco1)c1ccc2c(c1)N=C(c1ccc(Cl)cc1)c1ccccc1S2` [drawing 1803], the values for the microsomal CLint at 1 μM in data set [1], in data set [2] and in data set [3] were 75 µL/min/mg, 97 µL/min/mg and 29 µL/min/mg, respectively.
Taken in the same sequence, the figures for `C[C@@H]1CCC[C@H](C)N1NC(=O)c1ccc2c(c1)N=C(c1cccc(F)c1)c1ccccc1S2` [drawing 1758] were 318 µL/min/mg, 659 µL/min/mg and 513 µL/min/mg.
Taken in the same sequence, the figures for `CC(C)CNC(=O)c1ccc2c(c1)N=C(c1ccc(F)cc1)c1ccccc1S2` [drawing 1761] were 125 µL/min/mg, 354 µL/min/mg and 43 µL/min/mg.
In data set [2], `CC(C)CNC(=O)c1ccc2c(c1)N=C(c1cccc(Cl)c1)c1ccccc1S2` [drawing 1795] returned a microsomal CLint at 1 μM of 69 µL/min/mg.
For `O=C(NCc1ccc(F)cc1)c1ccc2c(c1)N=C(c1ccc(Cl)cc1)c1ccccc1S2` [drawing 1741], the intrinsic metabolic clearance (microsomal CLint) at 1 μM in data set [1] was 56 µL/min/mg; in data set [2] it was 130 µL/min/mg; in data set [3], 16 µL/min/mg.
Regarding `O=C(NCc1cccs1)c1ccc2c(c1)N=C(c1ccccc1F)c1ccccc1S2` [drawing 1744], the microsomal CLint at 1 μM in data set [1] came to 225 µL/min/mg; in data set [2], 386 µL/min/mg; in data set [3] it was 89 µL/min/mg.
Taken in the same sequence, the figures for `O=C(NN1CCCCCC1)c1ccc2c(c1)N=C(c1cccc(Cl)c1)c1ccccc1S2` [drawing 1689] were 162 µL/min/mg, 124 µL/min/mg and 59 µL/min/mg.
Taken in the same sequence, the figures for `O=C(NCc1cccs1)c1ccc2c(c1)N=C(c1ccc(F)cc1)c1ccccc1S2` [drawing 1659] were 171 µL/min/mg, 171 µL/min/mg and 52 µL/min/mg.
Taken in the same sequence, the figures for `O=C(NN1CCCCC1)c1ccc2c(c1)N=C(c1ccc(Cl)cn1)c1ccccc1S2` [drawing 1786] were 290 µL/min/mg, 416 µL/min/mg and 64 µL/min/mg.
Take `CC(C)CCNC(=O)c1ccc2c(c1)N=C(c1ccccn1)c1ccccc1S2` [drawing 1784]: in data set [2], the microsomal CLint at 1 μM came to 68 µL/min/mg.
Still for that read-out and setting: for `CC(C)CNC(=O)c1ccc2c(c1)N=C(c1ccc(Cl)s1)c1ccccc1S2` [drawing 1681] the value was 412 µL/min/mg.
For the compound `CCCCNC(=O)c1cc2c(cc1O)Sc1ccccc1C(c1ccc(Cl)cc1)=N2` [drawing 1672], the figures for the microsomal CLint at 1 μM in data set [1] and in data set [2] were 7 µL/min/mg and 12 µL/min/mg, respectively.
Turning to `CCCCNC(=O)c1ccc2c(c1)N=C(c1ccc(Cl)cc1)c1ccccc1S2` [drawing 1661], the microsomal CLint at 1 μM in data set [2] was determined as 99 µL/min/mg.
`O=C(NN1CCCCC1)c1ccc2c(c1)N=C(C1CCCCC1)c1ccccc1S2` [drawing 1695] registered a microsomal CLint at 1 μM in data set [2] of 349 µL/min/mg. This microsomal CLint at 1 μM lies about 3.5-fold higher than the previous one.
On the same count and under the same terms, for `O=C(NCc1cccc(Cl)c1)c1ccc2c(c1)N=C(N1CCC(F)(F)CC1)c1ccccc1S2` [drawing 1800] the value was 120 µL/min/mg.
As for `O=C(NCCc1cccc(Cl)c1)c1ccc2c(c1)N=C(c1ccc(Cl)cc1)c1ccccc1S2` [drawing 1766], the figures for the microsomal CLint at 1 μM in data set [1] and in data set [3] were 116 µL/min/mg and 56 µL/min/mg, respectively.
Taken in the same sequence, the figures for `O=C(NCCC(F)(F)F)c1ccc2c(c1)N=C(c1cccc(Cl)c1)c1ccccc1S2` [drawing 1721] were 40 µL/min/mg and 18 µL/min/mg.
Taken in the same sequence, the figures for `O=C(NC1CCC(F)(F)CC1)c1ccc2c(c1)N=C(c1ccc(Cl)s1)c1ccccc1S2` [drawing 1699] were 158 µL/min/mg and 20 µL/min/mg.
Taken in the same sequence, the figures for `CCN(CCNC(=O)c1ccc2c(c1)N=C(C1CCCCC1)c1ccccc1S2)c1ccccc1` [drawing 1747] were 379 µL/min/mg and 249 µL/min/mg.
`CCCCNC(=O)c1ccc2c(c1)N=C(c1ccc(Cl)cc1)c1sccc1S2` [drawing 1717]: in data set [2], the microsomal CLint at 1 μM stood at 79 µL/min/mg.
As for `O=C(NCc1ccccc1Br)c1ccc2c(c1)N=C(c1ccc(Cl)cc1)c1ccccc1S2` [drawing 1788], the figures for the microsomal CLint at 1 μM in data set [1] and in data set [3] were 36 µL/min/mg and 10 µL/min/mg, respectively.

One may read the microsomal CLint as a measure of how fast metabolising enzymes remove a compound, apart from limits set by blood flow. Read a high microsomal CLint as faster metabolism.
